Experimental data taken from US7576107B2 (dated 2009).

Which melting point does the source give for `COCCNc1c(S(=O)(=O)C(F)(F)F)c(C#N)nn1-c1c(Cl)cc(C(F)(F)F)cc1Cl` here?
The melting point was 164 °C.
